Laboratory results taken from article PMC8261488, “Contraceptive progestins with androgenic properties stimulate breast epithelial cell proliferation” (EMBO Molecular Medicine, 2021).

How the values were obtained:
Assay type in all cases: cell-based
[1] = system: human breast tissue microstructures (EpCAM+ cells); assay: RNA sequencing of EpCAM+ cells from human breast tissue microstructures stimulated ex vivo; details: 14–18 h exposure, n = 3
Text: Having ascertained with mammary tissue from inbred mice that androgenic and anti‐androgenic progestins have different effects on the expression of important PR target genes, we set out to assess the transcriptional response to PR signaling in the human breast epithelium. In view of our goal to perform in vivo experiments with the natural ligand progesterone, we compared the effects of progesterone to those of its stable analog R5020 which is commonly used for in vitro experiments on breast epithelial cells. For this, we used an ex vivo approach with human breast tissue similar to the mouse organoid technique used above that maintains hormone responsiveness (Tanos et al, 2013; Sflomos et al, 2015). In brief, 3 fresh mammoplasty tissue from women with follicular phase progesterone levels were cut into 1 mm^3 pieces and aliquoted for digestion with collagenase and concomitant exposure to either vehicle, R5020, or progesterone for 14–18 h. Tissue microstructures that contain epithelial cells, immune cells, and fibroblasts in varying proportions were recovered. To reduce interpatient variation as far as it relates to different ratios of various cell types, at the end of the treatment, the tissue microstructures were dissociated to single cells and enriched for epithelial cells by FACS sorting with antibodies against the epithelial cell surface marker EpCAM (Fig 2A). The EpCAM^+ cells were processed for RNA sequencing. […] Progesterone affected expression levels of 65 genes, whereas R5020 affected 112 genes, including RANKL (adj.P < 0.05) (Appendix Fig S2A). More than 90% of the progesterone‐induced gene expression changes were induced by R5020 (Fig 2C). […] R5020 induced higher‐fold changes as indicated by the estimated slope of the curve being > 1 (P < 0.0001). […]
All experiments conformed to the principles set out in the WMA Declaration of Helsinki and the Department of Health and Human Services Belmont Report. […] Human tissue samples were mechanically and enzymatically dissociated, single cells were prepared, counted, and spin infected using Lenti‐ONE CMV‐GFP(2A)Luc2 WPRE VSV, V621004001, or pR980 Luc2GFP (GEGTECH) at a multiplicity of infection of 1 at 2.500 rpm for 3 h at room temperature in 500 μl of serum‐free medium. […]
(§1) RNAseq libraries were prepared using Truseq Stranded RNA producing single‐end reads of 100 bp and sequenced on Illumina Hiseq 2500 instrument. […]
(§2) Sequencing reads were quality controlled using FastQC (v0.11.8) (Wingett & Andrews, 2018). Mouse raw reads were aligned to the mouse genome (mm9) and human raw reads to the human genome (hg19) using TopHat (v2.0.11) (Kim et al, 2013). […]

[2] = system: Wnt4; assay: Wnt4 transcript levels by RT-PCR in mouse mammary organoids stimulated ex vivo
Method: (§3) Next, we stimulated mouse mammary organoids derived from several BalbC females with R5020 or different progestins (Fig 1A). […] No significant change in Rankl and Wnt4 transcript levels was detected during the first 2 h (Appendix Fig S1D). By 6 h of R5020 stimulation, Rankl and Wnt4 transcript levels increased 22.4 and 5.8‐fold over the vehicle‐treated control, respectively.
(§4) Animal experiments were performed in accordance with protocol approved by the Service de la Consommation et des Affaires vétérinaires of Canton de Vaud (VD 1865.3, VD 1865.4). NOD. Cg‐Prkdc^scid Il2rg^tm1Wjl/SzJ mice (Charles River), BalbC, and C57Bl6 breeders were purchased from Jackson Laboratories. Mammary glands were isolated from 18‐ to 35‐week‐old mice, lymph nodes removed, minced with surgical blades, and digested in DMEM/F12, 1% penicillin/streptomycin B with collagenase A 0.25 mg/ml (Roche). […] Fat was removed, and pellet containing organoids washed with phosphate‐buffered saline (PBS), resuspended 5 min in 3 ml red cell blood lysis buffer and washed twice with PBS.
(§5) Human breast microstructures and mouse organoids were homogenized in Trizol (Invitrogen). Aqueous phase containing RNA was chloroform extracted and processed with miRNeasy extraction kit (Qiagen). cDNA was synthesized using random p(dN)6 primers (Roche) and MMLV reverse transcriptase (Invitrogen). SYBR Green PCR Core Reagent System (Qiagen) was used for semi‐quantitative real time (RT‐PCR) using the following primers.

[3] = system: Rankl; assay: Rankl transcript levels by RT-PCR in mouse mammary organoids stimulated ex vivo
Method: as §3, §4, §5

[4] = system: mouse mammary organoids; assay: RNA sequencing of mouse mammary organoids stimulated ex vivo with R5020; details: R5020 20 nM, 6 h, n = 3
Text: To test this hypothesis, we sought for biological readouts in physiologically relevant models. First, we recurred to using an ex vivo assay for the transcriptional response of the mouse mammary epithelium to hormones. We isolated mammary glands from several inbred adult female mice, treated them mechanically and enzymatically to generate epithelial‐enriched organoids, which remain hormone‐responsive (Ayyanan et al, 2011), and exposed them either to vehicle or to the stable progesterone mimic promegestone (R5020, 20 nM) for 6 h and performed RNA sequencing (Fig 1A). Three independent experiments were performed, and principal component analysis (PCA) grouped the samples according to treatment (Fig 1B). […] Together, these observations confirm that PR signaling is intact in this ex vivo model and that the functionally important factors, Rankl and Wnt4, are robust PR target genes in the mouse mammary epithelium.
(§6) Animal experiments were performed in accordance with protocol approved by the Service de la Consommation et des Affaires vétérinaires of Canton de Vaud (VD 1865.3, VD 1865.4). NOD. Cg‐Prkdc^scid Il2rg^tm1Wjl/SzJ mice (Charles River), BalbC, and C57Bl6 breeders were purchased from Jackson Laboratories. Mammary glands were isolated from 18‐ to 35‐week‐old mice, lymph nodes removed, minced with surgical blades, and digested in DMEM/F12, 1% penicillin/streptomycin B with collagenase A 0.25 mg/ml (Roche). Tissue was concomitantly stimulated with hormones for 1, 2, or 6 h and centrifuged at 652 g for 5 min. Fat was removed, and pellet containing organoids washed with phosphate‐buffered saline (PBS), resuspended 5 min in 3 ml red cell blood lysis buffer and washed twice with PBS.
as §1, §2

[5] = system: Rankl; assay: Rankl induction by R5020 or LNG in mouse mammary organoids co-treated with AR antagonists; details: antagonist 100 µM, 6 h, C57Bl6-derived organoids
Method: (§7) Enzalutamide (100 µM) abrogated Rankl induction by R5020 (P < 0.05) but had no effect on Wnt4 induction (Fig 1H).
as §6, §5

[6] = system: Wnt4; assay: Wnt4 induction by R5020 or LNG in mouse mammary organoids co-treated with AR antagonists; details: antagonist 100 µM, 6 h, C57Bl6-derived organoids
Method: as §7, §6, §5

[7] = BalbC females, 6 h of stimulation
[8] = BalbC-derived organoids, 24 h of stimulation

Row | SMILES | RANKL expression (variant stabilized gene expression values) [1] | WNT4 expression (variant stabilized gene expression values) [1] | Wnt4 transcript levels over vehicle-treated control [2, 7] [fold] | Wnt4 transcript induction [2, 8] [fold] | Wnt4 transcript induction ([2]; C57Bl/6 mice, 6 h, 20 nM) [fold] | Rankl transcript levels over vehicle-treated control [3, 7] [fold] | Rankl transcript induction [3, 8] [fold] | Rankl transcript induction ([3]; C57Bl/6 mice, 6 h, 20 nM) [fold] | Pgr transcripts, down-modulation (RNA sequencing) [4] [fold] | Rankl transcripts, induction over control samples (RNA sequencing) [4] [fold] | Wnt4 induction (RNA sequencing) [4] [fold] | effect of AR antagonist on Rankl induction by R5020 [5] | effect of AR antagonist on Wnt4 induction by R5020 [6]
1 | CCC(=O)[C@@]1(C)CC[C@H]2[C@@H]3CCC4=CC(=O)CCC4=C3CC[C@@]21C [R5020, promegestone] | increased expression | increased expression | 5.8 | 26 | 4.2 | 22.4 | 83 | 10.9 | 0.2 | 10.07 | 3.1 | – | –
2 | CC(O)(CS(=O)(=O)c1ccc(F)cc1)C(=O)Nc1ccc(C#N)c(C(F)(F)F)c1 (stereo not shown) [bicalutamide] | – | – | – | – | – | – | – | – | – | – | – | abrogated | no significant effect
